Patent EP3722296B1, “DIHYDRONAPHTHYRIDINES AND RELATED COMPOUNDS USEFUL AS KINASE INHIBITORS FOR THE TREATMENT OF PROLIFERATIVE DISEASES” (Deciphera Pharmaceuticals, LLC, priority 2012, dated 2013)

Columns and labels:
[1] = biological target: T1, c-KIT kinase (Homo sapiens, UniProt P10721); assay: c-KIT kinase Assay; type: biochemical; parameters: cKIT residues T544-V976; GST (N); TEV cleavage site (internal); purchased deCODE Biostructures; conditions: enzymatic assay, ATP 200 µM; read-out: KIT (wt) IC50
Procedure, shortened: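 This continuous spectrophotometric assay tracked c-KIT kinase turnover through NADH consumption at 340 nm, recorded for 2 hours at 30 °C. The enzyme construct from deCODE Biostructures carried an N-terminal tag, a GST-fusion sequence and a TEV cleavage site. Percent inhibition came from reaction rates over 0 to 1 h relative to a no-compound control, and IC50 values were derived with GraphPad Prism.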
Target sequence in this assay (P10721 544-976): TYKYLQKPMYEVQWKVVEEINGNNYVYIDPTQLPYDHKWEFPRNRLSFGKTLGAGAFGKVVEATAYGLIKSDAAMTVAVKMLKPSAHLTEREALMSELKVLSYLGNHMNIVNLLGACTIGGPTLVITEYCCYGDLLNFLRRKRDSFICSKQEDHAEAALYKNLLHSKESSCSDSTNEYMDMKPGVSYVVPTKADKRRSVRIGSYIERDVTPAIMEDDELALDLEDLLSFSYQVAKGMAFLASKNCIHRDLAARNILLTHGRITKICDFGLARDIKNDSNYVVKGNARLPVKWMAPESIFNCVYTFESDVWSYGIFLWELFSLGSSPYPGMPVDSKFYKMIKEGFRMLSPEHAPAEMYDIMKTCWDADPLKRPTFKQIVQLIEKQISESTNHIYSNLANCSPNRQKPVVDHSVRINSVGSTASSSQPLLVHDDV

[2] = biological target: T2, c-KIT D816V kinase (Homo sapiens, UniProt P10721, D816V); assay: c-KIT D816V kinase Assay; type: biochemical; conditions: enzymatic assay, ATP 200 uM
T2 construct: residues T544-V976 with N-terminal GST fusion; purchased deCODE Biostructures
Procedure, shortened: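 Coupled assay in which NADH oxidation was tracked as decreasing absorbance at 340 nm, continuously for 5 hours at 30 °C after adding serially diluted compound. Enzyme: cKit residues T544-V976 with N-terminal tag, GST fusion and TEV cleavage site.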

[3] = system: GIST430 cells; assay: GIST 430 Cell Proliferation Assay; type: cell-based; conditions: Homo sapiens, 120 h, 115 hours + 5 hours resazurin
Experimental: (§1) GIST48, GIST430, and GIST882 cells were obtained from J. Fletcher (Brigham and Women's Hospital, Boston, MA). GIST T1 cells were obtained from B. Rubin (Cleveland Clinic, Cleveland, OH) and Professor Takahiro Taguchi (Kochi Medical School, Nankoku, Kochi, Japan). Briefly, GIST48 and GIST 882 cells were grown in RPMI 1640 medium supplemented with 15% characterized fetal bovine serum (Invitrogen, Carlsbad, CA), 1 unit/mL penicillin G, 1 µg/ml streptomycin, and 0.29 mg/mL L-glutamine at 37 °C, 5% CO2, and 95% humidity. GIST430 cells were grown in Ham's F10 medium supplemented with 15% characterized fetal bovine serum (Invitrogen, Carlsbad, CA), 30 mg/L bovine pituitary extract (BD Biosciences, San Jose, CA), 0.5% Mito+ serum extender (BD Biosciences, San Jose, CA), 1 unit/mL penicillin G, 1 µg/ml streptomycin, and 0.29 mg/mL L-glutamine at 37 °C, 5%CO2, 95% humidity. GIST T1 cells were grown in DMEM medium supplemented with 10% characterized fetal bovine serum (Invitrogen, Carlsbad, CA), 1 unit/mL penicillin G, 1 µg/ml streptomycin, and 0.29 mg/mL L-glutamine at 37 °C, 5% CO2, and 95% humidity.
A serial dilution of test compound was dispensed into a 384-well black clear bottom plate (Corning, Corning, NY). Two thousand five-hundred cells were added per well in 50 µL complete growth medium. Plates were incubated for 115 hours at 37°C, 5% CO2, 95% humidity. At the end of the incubation period 10 µL of a 440 µM solution of resazurin (Sigma, St. Louis, MO) in PBS was added to each well and incubated for an additional 5 hours at 37°C, 5% CO2, 95% humidity. Plates were read on a Synergy2 reader (Biotek, Winooski, VT) using an excitation of 540 nm and an emission of 600 nm.

[4] = biological target: T3, c-KIT VVDV kinase (Homo sapiens, UniProt P10721, D816V/DEL559-560); assay: cKIT-VVDV kinase Assay; type: biochemical; conditions: enzymatic assay; V559+V560 deletions and D816V mutation
T3 construct: This construct contains residues T544-V976 of cKit; GST (N); TEV cleavage site (internal); purchased deCODE Biostructures
Experimental: In this assay, the oxidation of NADH (measured by decrease in absorbance at 340 nm) was continuously monitored spectrophotometrically. […] The inhibition reaction was started by mixing serial diluted test compound with the above reaction mixture. The absorption at 340 nm was monitored continuously for 5 hours at 30 °C on Synergy 2 plate reader (BioTech). […] The protein construct was prepared by deCODE Biostructures using procedures known in the art. […] This construct is identical to Seq ID no.

[5] = biological target: T4, c-KIT T670I kinase (Homo sapiens, UniProt P10721, T670I); assay: c-KIT T670I kinase assay; type: biochemical; conditions: enzymatic assay
T4 construct: The construct contains residues T544-V976 of cKit; GST (N); TEV cleavage site (internal); purchased deCODE Biostructures
Procedure, shortened: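 Enzyme: GST-fused, N-terminally tagged cKit bearing T670I, with TEV cleavage site. Reaction started by mixing compound dilutions with reaction mix; activity read continuously over 5 h at 30 °C as loss of 340 nm absorbance from NADH consumption.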

[6] = biological target: T5, c-KIT D816H kinase (Homo sapiens, UniProt P10721, D816H); assay: c-KIT D816H Kinase Assay; type: biochemical; conditions: enzymatic assay, ATP 200 µM
T5 construct: The construct contains residues T544-V976 of cKit; GST (N); TEV cleavage site (internal); purchased deCODE Biostructures
Procedure, shortened: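 Mutant cKit enzyme, expressed as a GST-fusion construct carrying an N-terminal tag and TEV site, was mixed with serially diluted compound to start reactions. Activity tracked via NADH consumption, read continuously at 340 nm over 6 hours at 30 °C.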

[7] = biological target: T6, c-KIT V654A kinase (Homo sapiens, UniProt P10721, V654A); assay: c-KIT V654A Kinase Assay; type: biochemical; conditions: enzymatic assay, ATP 200 µM
T6 construct: residues T544-V976 with N-terminal GST fusion; purchased deCODE Biostructures
Procedure, shortened: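 Kinase activity tracked by coupled NADH consumption, monitored continuously at 340 nm over 6 h at 30 °C after serially diluted compound was mixed in to start inhibition. Enzyme used was a GST-fused, N-terminally tagged cKIT T544–V976 construct with a TEV cleavage site.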

[8] = system: GIST T1 cells; assay: GIST T1 Cell Proliferation Assay; type: cell-based; conditions: Homo sapiens, GISTT1, 72 h, 68 hours + 4 hours resazurin
[9] = system: Phospho-KIT (Tyr719); assay: GIST48 KIT Western Blot; type: cell-based; conditions: GIST48 cells, 4 hours, serum-free medium; read-out: pKIT suppression by western blot analysi GIST48
Procedure, shortened: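 Phospho-KIT (Tyr719) was immunoblotted on PVDF and imaged in fluorescence mode after ECL Plus, with stripping and reprobing for total KIT. IC50 values were derived from the blot signals.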

[10] = system: Phospho-KIT (Tyr719); assay: GIST430 KIT Western Blot; type: cell-based; conditions: GIST430 cells, 4 hours, serum-free medium; read-out: pKIT suppression by western blot analysi GIST430
Experimental: as §1, with “Briefly, GIST48 and GIST 882 cells were grown in RPMI 1640 medium supplemented with 15% characterized fetal bovine serum (Invitrogen, Carlsbad, CA), 1 unit/mL penicillin G, 1 µg/ml streptomycin, and 0.29 mg/mL L-glutamine at 37 °C, 5% CO2, and 95% humidity.” left out
(§2) One hundred fifty thousand cells were added per well in a 24-well tissue-culture treated plate. […] Medium was aspirated, cells were washed with PBS, and serum-free Ham's F10 medium was added. […] Cells were washed with PBS, then lysed. Cell lysates were separated by SDS-PAGE and transferred to PVDF. Phospho-KIT (Tyr719) was detected using an antibody from Cell Signaling Technology (Beverly, MA), ECL Plus detection reagent (GE Healthcare, Piscataway, NJ) and a Molecular Devices Storm 840 phosphorimager in fluorescence mode. Blots were stripped and probed for total KIT using an antibody from Santa Cruz Biotech (Santa Cruz, CA). IC50 values were calculated using Prism software (Graphpad, San Diego, CA).

[11] = biological target: T7, Phospho-KIT (Tyr719) (Homo sapiens, UniProt P10721, K642E); assay: GIST882 KIT Western Blot; type: cell-based; conditions: GIST882 cells, 4 hours, serum-free medium; read-out: pKIT suppression by western blot analysi GIST 882
T7 construct: endogenous in cells; host or cells: GIST882
Experimental: as §1, with “Briefly, GIST48 and GIST 882 cells were grown in RPMI 1640 medium supplemented with 15% characterized fetal bovine serum (Invitrogen, Carlsbad, CA), 1 unit/mL penicillin G, 1 µg/ml streptomycin, and 0.29 mg/mL L-glutamine at 37 °C, 5% CO2, and 95% humidity.” left out
as §2, with “Two” for “One”, “RPMI1640” for “Ham's F10”

[12] = biological target: T1, c-KIT kinase; assay: Kinase inhibitory profile of marketed inhibitors, c-KIT kinase; type: biochemical
Target sequence in this assay (P10721 26-976): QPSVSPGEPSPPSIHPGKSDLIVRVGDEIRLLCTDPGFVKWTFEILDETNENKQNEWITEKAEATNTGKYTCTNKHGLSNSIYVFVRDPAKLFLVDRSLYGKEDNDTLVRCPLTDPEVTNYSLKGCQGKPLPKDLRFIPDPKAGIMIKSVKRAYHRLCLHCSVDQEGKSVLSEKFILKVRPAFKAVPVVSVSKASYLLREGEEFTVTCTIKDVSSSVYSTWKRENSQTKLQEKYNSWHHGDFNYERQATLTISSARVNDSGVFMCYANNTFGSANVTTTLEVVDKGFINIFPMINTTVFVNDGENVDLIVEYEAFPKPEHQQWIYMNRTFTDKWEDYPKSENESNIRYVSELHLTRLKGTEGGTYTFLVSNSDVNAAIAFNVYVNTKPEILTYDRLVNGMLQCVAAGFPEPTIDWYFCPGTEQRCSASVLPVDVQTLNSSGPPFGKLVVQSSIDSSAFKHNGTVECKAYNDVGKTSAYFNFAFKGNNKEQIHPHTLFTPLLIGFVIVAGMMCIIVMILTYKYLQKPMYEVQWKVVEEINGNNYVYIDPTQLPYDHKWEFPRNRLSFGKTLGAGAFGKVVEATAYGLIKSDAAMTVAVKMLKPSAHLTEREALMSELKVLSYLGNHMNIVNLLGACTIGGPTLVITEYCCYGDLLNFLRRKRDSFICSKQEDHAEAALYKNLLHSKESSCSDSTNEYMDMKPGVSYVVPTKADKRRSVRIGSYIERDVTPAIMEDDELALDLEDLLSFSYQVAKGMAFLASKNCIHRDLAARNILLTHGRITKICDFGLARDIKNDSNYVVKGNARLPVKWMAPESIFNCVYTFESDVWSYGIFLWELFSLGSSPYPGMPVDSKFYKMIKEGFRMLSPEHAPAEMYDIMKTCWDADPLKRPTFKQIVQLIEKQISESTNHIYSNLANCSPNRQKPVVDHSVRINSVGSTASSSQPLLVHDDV

T2 sequence (P10721 544-976 D816V): as the sequence (P10721 544-976) above, with D273V counted along it
T4 sequence (P10721 544-976 T670I): as the sequence (P10721 544-976) above, with T127I counted along it
T5 sequence (P10721 544-976 D816H): as the sequence (P10721 544-976) above, with D273H counted along it
T3 sequence (P10721 with tags, fused parts or gaps DEL559-560/D816V): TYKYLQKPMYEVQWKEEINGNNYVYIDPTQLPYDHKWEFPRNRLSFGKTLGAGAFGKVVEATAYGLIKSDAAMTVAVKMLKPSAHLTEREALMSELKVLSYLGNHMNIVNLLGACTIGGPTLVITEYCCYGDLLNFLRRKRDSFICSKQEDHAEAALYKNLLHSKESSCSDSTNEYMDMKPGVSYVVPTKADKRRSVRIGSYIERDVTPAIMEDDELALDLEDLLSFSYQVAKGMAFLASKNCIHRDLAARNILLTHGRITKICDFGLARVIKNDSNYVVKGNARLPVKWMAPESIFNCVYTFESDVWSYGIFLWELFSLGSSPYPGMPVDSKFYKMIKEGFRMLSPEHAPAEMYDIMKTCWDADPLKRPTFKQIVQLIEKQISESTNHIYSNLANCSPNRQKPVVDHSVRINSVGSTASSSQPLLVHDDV
T7 sequence (P10721 26-976 K642E): as the sequence (P10721 26-976) above, with K617E counted along it
T6 sequence (P10721 544-976 V654A): as the sequence (P10721 544-976) above, with V111A counted along it

SMILES | IC50 [1] [nM] | IC50 [2] [nM] | IC50 [3] [nM] | IC50 [4] [nM] | IC50 [5] [nM] | IC50 [6] [nM] | IC50 [7] [nM] | IC50 [8] [nM] | IC50 [9] [nM] | IC50 [10] [nM] | IC50 [11] [nM] | IC50 [12] [nM]
CNc1cc2c(cn1)cc(-c1cc(NC(=O)Nc3cccc(F)c3)c(F)cc1F)c(=O)n2C(C)C [Example 40, 1-(2,4-difluoro-5-(1-isopropyl-7-(methylamino)-2-oxo-1,2-dihydro-1,6-naphthyridin-3-yl)phenyl)-3-(3-fluorophenyl)urea] | < 10 | 10 to 100 | 100 to 1000 | 100 to 1000 | 100 to 1000 | 10 to 100 | 10 to 100 | < 10 | – | – | – | –
CCn1c(=O)c(-c2cc(NC(=O)Nc3ccccc3F)c(F)cc2C)cc2cnc(NC)cc21 [Example 38, 1-(5-(1-ethyl-7-(methylamino)-2-oxo-1,2-dihydro-1,6-naphthyridin-3-yl)-2-fluoro-4-methylphenyl)-3-(2-fluorophenyl)urea] | < 10 | 10 to 100 | 10 to 100 | – | 100 to 1000 | 10 to 100 | – | < 10 | > 1000 | – | – | –
CCn1c(=O)c(-c2cc(NC(=O)Nc3cccc4ccccc34)c(F)cc2C)cc2cnc(NC)cc21 [Example 1, 1-(5-(1-ethyl-7-(methylamino)-2-oxo-1,2-dihydro-1,6-naphthyridin-3-yl)-2-fluoro-4-methylphenyl)-3-(naphthalen-1-yl)urea] | < 10 | 10 to 100 | – | 10 to 100 | < 10 | 10 to 100 | – | – | 10 to 100 | < 10 | 100 to 1000 | –
CCCS(=O)(=O)Nc1ccc(F)c(C(=O)c2c[nH]c3ncc(-c4ccc(Cl)cc4)cc23)c1F [Vemurafenib®, vemurafenib] | – | – | – | – | – | – | – | – | – | – | – | 1600
